According to patent US6551632B2, “Methods and compositions for treating inflammatory bowel disease” (priority 1997, dated 2003):

Test system: Patients with Inflammatory Bowel Disease
Assay: Treatment of patients with inflammatory bowel disease using a combination of anti-atypical mycobacterial agents (Example 1)
Experimental: Fifteen patients, aged 13 to 58, were treated with various protocols of antimycobacterial agents. Twelve patients had Crohn's disease and three ulcerative colitis. Presence of Mycobacterium paratuberculosis was identified in nine of these patients. A combination of clarithromycin (250 mg to 1.5 grams per day), rifabutin (150 mg to 750 mg per day) and clofazimine (3 mg/kg to 10 mg/kg) was used.
After four months of treatment, five patients were examined colonoscopically.
In these three patients, a combination of clarithromycin and rifabutin (same dosages as above) together with added clofazimine, 2 mg per kg, made up a preferred therapy. […] No prednisone, azathioprine or 5ASA compounds were used. […] This dose was increased at one stage to 50 mg per kg in an attempt to reverse the inflammatory process and then reduced to 10 mg per kg. […] In yet a further patient four drugs were used simultaneously because of resistance to clarithromycin. Azithromycin, 500 mg each morning (range 250-1,500 mg) was used in combination with rifabutin, clofazimine, and ethambutol.

Row | SMILES | sensitivity (adverse reaction) (one patient on the combination therapy) | clinical response after rifabutin was changed to ethambutol (one patient, ethambutol 400 mg twice daily, raised to 50 mg per kg, then 10 mg per kg, with clarithromycin and clofazimine)
1 | CO[C@H]1/C=C/O[C@@]2(C)Oc3c(C)c(O)c4c(c3C2=O)C2=NC3(CCN(CC(C)C)CC3)NC2=C(NC(=O)/C(C)=C\C=C\[C@H](C)[C@H](O)[C@@H](C)[C@@H](O)[C@@H](C)[C@H](OC(C)=O)[C@@H]1C)C4=O [rifabutin] | marked headaches and fever | 
2 | CC[C@@H](CO)NCCN[C@@H](CC)CO [ethambutol] |  | reversal of the inflammatory process with loss of diarrhoea, loss of bleeding, and ultimately loss of urgency
